Experimental data published in a compilation of properties of binary mixtures (doi:10.1016/j.molliq.2014.08.031).

Experiment: xn = mol fraction of the nth substance listed
Settings: 101 kPa

CCCC[n+]1ccn(C)c1.CS(=O)(=O)[O-] + O
Settings | electrical conductivity [S/m] | viscosity [mPa·s]
343.15 K, x2 = 0.7015 | – | 6.27
343.15 K, x2 = 0.704 | 2.68 | –
343.15 K, x2 = 0.7495 | – | 4.95
343.15 K, x2 = 0.785 | 4.03 | –
343.15 K, x2 = 0.796 | 4.19 | –
343.15 K, x2 = 0.8016 | – | 3.73
343.15 K, x2 = 0.861 | 7.01 | –
343.15 K, x2 = 0.9004 | – | 1.902
343.15 K, x2 = 0.9254 | – | 1.45
343.15 K, x2 = 0.929 | 9.33 | –
343.15 K, x2 = 0.9503 | – | 1.05
343.15 K, x2 = 0.951 | 9.42 | –
343.15 K, x2 = 0.968 | 8.73 | –
343.15 K, x2 = 0.975 | – | 0.672
344.15 K, x1 = 0.004 | 2.52 | –
344.15 K, x1 = 0.008 | 4.46 | –
344.15 K, x1 = 0.019 | 7.24 | –
344.15 K, x2 = 0.785 | 4.1 | –
344.15 K, x2 = 0.796 | 4.32 | –
344.15 K, x2 = 0.861 | 7.13 | –
344.15 K, x2 = 0.892 | 8.05 | –
344.15 K, x2 = 0.951 | 9.81 | –
345.15 K, x1 = 0.008 | 4.43 | –
345.15 K, x1 = 0.019 | 7.32 | –
345.15 K, x2 = 0.704 | 2.81 | –
345.15 K, x2 = 0.861 | 7.27 | –
345.15 K, x2 = 0.892 | 8.29 | –
345.15 K, x2 = 0.929 | 9.54 | –
346.15 K, x1 = 0.004 | 2.55 | –
346.15 K, x1 = 0.019 | 7.4 | –
346.15 K, x2 = 0.785 | 4.26 | –
346.15 K, x2 = 0.861 | 7.5 | –
346.15 K, x2 = 0.892 | 8.44 | –
346.15 K, x2 = 0.929 | 9.69 | –
346.15 K, x2 = 0.968 | 9.3 | –
347.15 K, x1 = 0.004 | 2.58 | –
347.15 K, x1 = 0.008 | 4.7 | –
347.15 K, x1 = 0.019 | 7.35 | –
347.15 K, x2 = 0.704 | 2.95 | –
347.15 K, x2 = 0.785 | 4.32 | –
347.15 K, x2 = 0.929 | 9.84 | –
347.15 K, x2 = 0.951 | 10.2 | –
347.15 K, x2 = 0.968 | 9.4 | –
348.15 K, x1 = 0.008 | 4.66 | –
348.15 K, x1 = 0.019 | 7.57 | –
348.15 K, x2 = 0.704 | 3.03 | –
348.15 K, x2 = 0.785 | 4.41 | –
348.15 K, x2 = 0.796 | 4.64 | –
348.15 K, x2 = 0.861 | 7.68 | –
348.15 K, x2 = 0.929 | 9.94 | –
348.15 K, x2 = 0.951 | 10.4 | –
348.15 K, x2 = 0.968 | 9.35 | –
349.15 K, x1 = 0.004 | 2.62 | –
349.15 K, x1 = 0.008 | 4.72 | –
349.15 K, x1 = 0.019 | 7.54 | –
349.15 K, x2 = 0.704 | 3.08 | –
349.15 K, x2 = 0.785 | 4.52 | –
349.15 K, x2 = 0.892 | 8.91 | –
349.15 K, x2 = 0.929 | 10.1 | –
349.15 K, x2 = 0.968 | 9.59 | –
350.15 K, x1 = 0.004 | 2.67 | –
350.15 K, x1 = 0.008 | 4.85 | –
350.15 K, x2 = 0.704 | 3.16 | –
350.15 K, x2 = 0.785 | 4.57 | –
350.15 K, x2 = 0.796 | 4.8 | –
350.15 K, x2 = 0.861 | 7.93 | –
350.15 K, x2 = 0.892 | 9.06 | –
350.15 K, x2 = 0.929 | 10.3 | –
350.15 K, x2 = 0.951 | 10.7 | –
350.15 K, x2 = 0.968 | 9.73 | –
351.15 K, x1 = 0.004 | 2.68 | –
351.15 K, x1 = 0.008 | 4.84 | –
351.15 K, x1 = 0.019 | 7.88 | –
351.15 K, x2 = 0.704 | 3.27 | –
351.15 K, x2 = 0.785 | 4.68 | –
351.15 K, x2 = 0.796 | 4.91 | –
351.15 K, x2 = 0.861 | 8.29 | –
351.15 K, x2 = 0.892 | 9.2 | –
351.15 K, x2 = 0.929 | 10.5 | –
351.15 K, x2 = 0.951 | 10.8 | –
351.15 K, x2 = 0.968 | 9.91 | –
352.15 K, x1 = 0.004 | 2.71 | –
352.15 K, x1 = 0.008 | 4.89 | –
352.15 K, x2 = 0.704 | 3.37 | –
352.15 K, x2 = 0.785 | 4.8 | –
352.15 K, x2 = 0.796 | 4.99 | –
352.15 K, x2 = 0.861 | 8.21 | –
352.15 K, x2 = 0.892 | 9.33 | –
352.15 K, x2 = 0.929 | 10.6 | –
352.15 K, x2 = 0.968 | 9.86 | –
353.15 K, x1 = 0.008 | 4.92 | –
353.15 K, x1 = 0.019 | 8.06 | –
353.15 K, x2 = 0.892 | 9.44 | –
353.15 K, x2 = 0.929 | 10.7 | –
353.15 K, x2 = 0.968 | 10.1 | –
354.15 K, x1 = 0.004 | 2.79 | –
354.15 K, x1 = 0.008 | 4.98 | –
354.15 K, x1 = 0.019 | 8.03 | –
354.15 K, x2 = 0.704 | 3.55 | –
354.15 K, x2 = 0.785 | 4.98 | –
354.15 K, x2 = 0.796 | 5.01 | –
354.15 K, x2 = 0.892 | 9.6 | –
354.15 K, x2 = 0.929 | 10.8 | –
354.15 K, x2 = 0.951 | 11.1 | –
354.15 K, x2 = 0.968 | 10.2 | –
355.15 K, x1 = 0.008 | 5.04 | –
355.15 K, x1 = 0.019 | 8.25 | –
355.15 K, x2 = 0.785 | 5.05 | –
355.15 K, x2 = 0.796 | 5.26 | –
355.15 K, x2 = 0.861 | 8.55 | –
355.15 K, x2 = 0.892 | 9.73 | –
355.15 K, x2 = 0.929 | 11 | –
355.15 K, x2 = 0.951 | 11.1 | –
356.15 K, x1 = 0.008 | 5.09 | –
356.15 K, x1 = 0.019 | 8.34 | –
356.15 K, x2 = 0.704 | 3.73 | –
356.15 K, x2 = 0.785 | 5.15 | –
356.15 K, x2 = 0.796 | 5.34 | –
356.15 K, x2 = 0.861 | 8.43 | –
356.15 K, x2 = 0.892 | 9.89 | –
356.15 K, x2 = 0.929 | 11.1 | –
356.15 K, x2 = 0.951 | 11.2 | –
356.15 K, x2 = 0.968 | 10.4 | –
357.15 K, x1 = 0.008 | 5.13 | –
357.15 K, x1 = 0.019 | 8.43 | –
357.15 K, x2 = 0.704 | 3.83 | –
357.15 K, x2 = 0.785 | 5.23 | –
357.15 K, x2 = 0.796 | 5.41 | –
357.15 K, x2 = 0.861 | 8.6 | –
357.15 K, x2 = 0.892 | 10 | –
357.15 K, x2 = 0.968 | 10.6 | –
358.15 K, x1 = 0.004 | 2.9 | –
358.15 K, x1 = 0.008 | 5.18 | –
358.15 K, x1 = 0.019 | 8.47 | –
358.15 K, x2 = 0.704 | 3.88 | –
358.15 K, x2 = 0.785 | 5.22 | –
358.15 K, x2 = 0.796 | 5.47 | –
358.15 K, x2 = 0.861 | 8.73 | –
358.15 K, x2 = 0.929 | 11.3 | –
358.15 K, x2 = 0.951 | 11.5 | –
358.15 K, x2 = 0.968 | 10.6 | –
